# Activity calls are given as the source filed them. The rule behind the calls is not given here.
# System: CCRIS mutagenicity, Ames/micronucleus/aberration tests
# Assay: CCRIS mutagenicity studies
# [1] = Test System: AMES SALMONELLA TYPHIMURIUM, Strain/Indicator: TA98, Metabolic Activation: HAMSTER, LIVER, S-9, AROCLOR 1254 (10%), Method: PREINCUBATION
# [2] = Test System: AMES SALMONELLA TYPHIMURIUM, Strain/Indicator: TA98, Metabolic Activation: NONE, Method: STANDARD PLATE
# [3] = Test System: AMES SALMONELLA TYPHIMURIUM, Strain/Indicator: TA98, Metabolic Activation: RAT, LIVER, S-9, AROCLOR 1254 (10%), Method: PREINCUBATION
# [4] = Test System: AMES SALMONELLA TYPHIMURIUM, Strain/Indicator: TA98, Metabolic Activation: RAT, LIVER, S-9, AROCLOR 1254, Method: STANDARD PLATE
# [5] = Test System: AMES SALMONELLA TYPHIMURIUM, Strain/Indicator: TA100, Metabolic Activation: HAMSTER, LIVER, S-9, AROCLOR 1254 (10%), Method: PREINCUBATION
# [6] = Test System: AMES SALMONELLA TYPHIMURIUM, Strain/Indicator: TA100, Metabolic Activation: NONE, Method: PREINCUBATION
# [7] = Test System: AMES SALMONELLA TYPHIMURIUM, Strain/Indicator: TA100, Metabolic Activation: NONE, Method: STANDARD PLATE
# [8] = Test System: AMES SALMONELLA TYPHIMURIUM, Strain/Indicator: TA100, Metabolic Activation: RAT, LIVER, S-9, AROCLOR 1254 (10%), Method: PREINCUBATION
# [9] = Test System: AMES SALMONELLA TYPHIMURIUM, Strain/Indicator: TA100, Metabolic Activation: RAT, LIVER, S-9, AROCLOR 1254, Method: STANDARD PLATE
# [10] = Test System: AMES SALMONELLA TYPHIMURIUM, Strain/Indicator: TA1535, Metabolic Activation: HAMSTER, LIVER, S-9, AROCLOR 1254 (10%), Method: PREINCUBATION
# [11] = Test System: AMES SALMONELLA TYPHIMURIUM, Strain/Indicator: TA1535, Metabolic Activation: NONE, Method: PREINCUBATION
# [12] = Test System: AMES SALMONELLA TYPHIMURIUM, Strain/Indicator: TA1535, Metabolic Activation: NONE, Method: STANDARD PLATE
# [13] = Test System: AMES SALMONELLA TYPHIMURIUM, Strain/Indicator: TA1535, Metabolic Activation: RAT, LIVER, S-9, AROCLOR 1254 (10%), Method: PREINCUBATION
# [14] = Test System: AMES SALMONELLA TYPHIMURIUM, Strain/Indicator: TA1537, Metabolic Activation: HAMSTER, LIVER, S-9, AROCLOR 1254 (10%), Method: PREINCUBATION
# [15] = Test System: AMES SALMONELLA TYPHIMURIUM, Strain/Indicator: TA1537, Metabolic Activation: NONE, Method: PREINCUBATION
# [16] = Test System: AMES SALMONELLA TYPHIMURIUM, Strain/Indicator: TA1537, Metabolic Activation: RAT, LIVER, S-9, AROCLOR 1254 (10%), Method: PREINCUBATION
# [17] = Test System: AMES SALMONELLA TYPHIMURIUM, Strain/Indicator: TA98, Metabolic Activation: NONE, Method: PREINCUBATION
structure (smiles),measurement,setting,value
O=C(Cl)c1ccc([N+](=O)[O-])cc1,mutagenic call,"End Point: In vitro chromosomal aberrations, Test System: Chinese hamster lung (CHL/IU) cells, Metabolic Activation: None",inactive; negative. precipitation observed in culture medium at all doses tested.
same,mutagenic call,"End Point: In vitro chromosomal aberrations, Test System: Chinese hamster lung (CHL/IU) cells, Metabolic Activation: Rat, Liver, S9, Phenobarbital and 5,6-benzoflavone",inactive; negative. precipitation observed in culture medium at all doses tested.
same,mutagenic call,[1],active; positive
same,mutagenic call,"Test System: AMES SALMONELLA TYPHIMURIUM, Strain/Indicator: TA98, Metabolic Activation: HAMSTER, LIVER, S-9, AROCLOR 1254, Method: STANDARD PLATE",inactive; negative
same,mutagenic call,[2],inactive; negative
same,mutagenic call,[3],active; positive
same,mutagenic call,[4],inactive; negative
same,mutagenic call,"Test System: AMES SALMONELLA TYPHIMURIUM, Strain/Indicator: TA98, Metabolic Activation: RAT, LIVER, S-9, KANECHLOR 500, Method: PREINCUBATION",inactive; negative
same,mutagenic call,[5],active; positive
same,mutagenic call,"Test System: AMES SALMONELLA TYPHIMURIUM, Strain/Indicator: TA100, Metabolic Activation: HAMSTER, LIVER, S-9, AROCLOR 1254, Method: STANDARD PLATE",inactive; negative
same,mutagenic call,[6],active; positive
same,mutagenic call,[7],inactive; negative
same,mutagenic call,[8],active; positive
same,mutagenic call,[9],inactive; negative
same,mutagenic call,"Test System: AMES SALMONELLA TYPHIMURIUM, Strain/Indicator: TA100, Metabolic Activation: RAT, LIVER, S-9, KANECHLOR 500, Method: PREINCUBATION",active; positive
same,mutagenic call,[10],active; positive
same,mutagenic call,"Test System: AMES SALMONELLA TYPHIMURIUM, Strain/Indicator: TA1535, Metabolic Activation: HAMSTER, LIVER, S-9, AROCLOR 1254, Method: STANDARD PLATE",inactive; negative
same,mutagenic call,[11],active; positive
same,mutagenic call,[12],inactive; negative
same,mutagenic call,[13],active; positive
same,mutagenic call,"Test System: AMES SALMONELLA TYPHIMURIUM, Strain/Indicator: TA1535, Metabolic Activation: RAT, LIVER, S-9, AROCLOR 1254, Method: STANDARD PLATE",inactive; negative
same,mutagenic call,[14],active; positive
same,mutagenic call,"Test System: AMES SALMONELLA TYPHIMURIUM, Strain/Indicator: TA1537, Metabolic Activation: HAMSTER, LIVER, S-9, AROCLOR 1254, Method: STANDARD PLATE",inactive; negative
same,mutagenic call,[15],active; positive
same,mutagenic call,"Test System: AMES SALMONELLA TYPHIMURIUM, Strain/Indicator: TA1537, Metabolic Activation: NONE, Method: STANDARD PLATE",inactive; negative
same,mutagenic call,[16],active; positive
same,mutagenic call,"Test System: AMES SALMONELLA TYPHIMURIUM, Strain/Indicator: TA1537, Metabolic Activation: RAT, LIVER, S-9, AROCLOR 1254, Method: STANDARD PLATE",inactive; negative
same,mutagenic call,"Test System: AMES SALMONELLA TYPHIMURIUM, Strain/Indicator: TA1538, Metabolic Activation: HAMSTER, LIVER, S-9, AROCLOR 1254, Method: STANDARD PLATE",inactive; negative
same,mutagenic call,"Test System: AMES SALMONELLA TYPHIMURIUM, Strain/Indicator: TA1538, Metabolic Activation: NONE, Method: STANDARD PLATE",inactive; negative
same,mutagenic call,"Test System: AMES SALMONELLA TYPHIMURIUM, Strain/Indicator: TA1538, Metabolic Activation: RAT, LIVER, S-9, AROCLOR 1254, Method: STANDARD PLATE",inactive; negative
same,mutagenic call,"Test System: Ames Salmonella typhimurium, Strain/Indicator: TA100, Metabolic Activation: Rat, Liver, S9, Sodium phenobarbital and 5,6-benzoflavone (10%), Method: Preincubation",active; positive
same,mutagenic call,"Test System: Ames Salmonella typhimurium, Strain/Indicator: TA1535, Metabolic Activation: None, Method: Preincubation",active; positive
same,mutagenic call,"Test System: Ames Salmonella typhimurium, Strain/Indicator: TA1535, Metabolic Activation: Rat, Liver, S9, Sodium phenobarbital and 5,6-benzoflavone (10%), Method: Preincubation",active; positive
same,mutagenic call,"Test System: Ames Salmonella typhimurium, Strain/Indicator: TA1537, Metabolic Activation: None, Method: Preincubation",inactive; negative
same,mutagenic call,"Test System: Ames Salmonella typhimurium, Strain/Indicator: TA1537, Metabolic Activation: Rat, Liver, S9, Sodium phenobarbital and 5,6-benzoflavone (10%), Method: Preincubation",inactive; negative
same,mutagenic call,"Test System: E. coli, Strain/Indicator: WP2uvrA/pKM101, Metabolic Activation: None, Method: Preincubation",inactive; negative
same,mutagenic call,"Test System: E. coli, Strain/Indicator: WP2uvrA/pKM101, Metabolic Activation: Rat, Liver, S9, Sodium phenobarbital and 5,6-benzoflavone (10%), Method: Preincubation",inactive; negative
same,mutagenic call,"Test System: MOUSE LYMPHOMA, Strain/Indicator: L5178Y (TK+/TK-), Metabolic Activation: NONE, Method: SUSPENSION/PLATE",inactive; negative. reevaluation of results: negative
same,mutagenic call,"Test System: MOUSE LYMPHOMA, Strain/Indicator: L5178Y (TK+/TK-), Metabolic Activation: RAT, LIVER, S-9, AROCLOR 1254, Method: SUSPENSION/PLATE",inactive; negative. reevaluation of results: negative
CCOC(=O)c1ccccc1C(=O)OCC,mutagenic call,[1],inactive; negative
same,mutagenic call,[17],inactive; negative
same,mutagenic call,[3],inactive; negative
same,mutagenic call,[5],inactive; negative
same,mutagenic call,[6],inactive; negative
same,mutagenic call,[7],active; positive
same,mutagenic call,[8],inactive; negative
same,mutagenic call,"Test System: AMES SALMONELLA TYPHIMURIUM, Strain/Indicator: TA100, Metabolic Activation: S-9, Method: STANDARD PLATE",inactive; negative
same,mutagenic call,[10],inactive; negative
same,mutagenic call,[11],inactive; negative
same,mutagenic call,[12],active; positive
same,mutagenic call,[13],inactive; negative
same,mutagenic call,"Test System: AMES SALMONELLA TYPHIMURIUM, Strain/Indicator: TA1535, Metabolic Activation: S-9, Method: STANDARD PLATE",inactive; negative
same,mutagenic call,[14],inactive; negative
same,mutagenic call,[15],inactive; negative
same,mutagenic call,[16],inactive; negative
Cc1cc(C)c2nc3c(ccc4ccccc43)c(C)c2c1,mutagenic call,"Test System: AMES SALMONELLA TYPHIMURIUM, Strain/Indicator: TA97A, Metabolic Activation: NONE, Method: PREINCUBATION",inactive; negative
same,mutagenic call,[17],active; positive
same,mutagenic call,[6],active; positive
same,mutagenic call,"Test System: AMES SALMONELLA TYPHIMURIUM, Strain/Indicator: TA102, Metabolic Activation: NONE, Method: PREINCUBATION",inactive; negative
COC(=O)Nc1nc2ccc(C(=O)c3ccc(F)cc3)cc2[nH]1,mutagenic call,[2],inactive; negative
same,mutagenic call,[4],inactive; negative
same,mutagenic call,[7],inactive; negative
same,mutagenic call,[9],inactive; negative
O=c1c2c(O)cccc2oc2cc3c(c(O)c12)[C@@H]1C=CO[C@@H]1O3,mutagenic call,"Test System: AMES SALMONELLA TYPHIMURIUM, Strain/Indicator: TA98, Metabolic Activation: RAT, LIVER, S-9, PHENOBARBITAL, Method: STANDARD PLATE",inactive; negative
same,mutagenic call,"Test System: AMES SALMONELLA TYPHIMURIUM, Strain/Indicator: TA100, Metabolic Activation: RAT, LIVER, S-9, PHENOBARBITAL, Method: STANDARD PLATE",inactive; negative
